According to patent publication US7989464B2, “mGluR1 antagonists as therapeutic agents” (Schering Corporation, priority 2004, dated 2011):
pIC50: −log10 of the molar value.

target: T1, hmGluR1 receptor (Homo sapiens, UniProt Q13255); assay: IC50 determination: intracellular calcium mobilization (FLIPR) upon Quisqualate stimulation in CHO cells stably expressing hmGluR1; format: cell-based; conditions: against Quisqualate 1 μM (EC80), FLIPR calcium mobilization, read-out: IC50 Class
T1 construct: expressed in transfected cells
T1 sequence (Q13255 19-1194): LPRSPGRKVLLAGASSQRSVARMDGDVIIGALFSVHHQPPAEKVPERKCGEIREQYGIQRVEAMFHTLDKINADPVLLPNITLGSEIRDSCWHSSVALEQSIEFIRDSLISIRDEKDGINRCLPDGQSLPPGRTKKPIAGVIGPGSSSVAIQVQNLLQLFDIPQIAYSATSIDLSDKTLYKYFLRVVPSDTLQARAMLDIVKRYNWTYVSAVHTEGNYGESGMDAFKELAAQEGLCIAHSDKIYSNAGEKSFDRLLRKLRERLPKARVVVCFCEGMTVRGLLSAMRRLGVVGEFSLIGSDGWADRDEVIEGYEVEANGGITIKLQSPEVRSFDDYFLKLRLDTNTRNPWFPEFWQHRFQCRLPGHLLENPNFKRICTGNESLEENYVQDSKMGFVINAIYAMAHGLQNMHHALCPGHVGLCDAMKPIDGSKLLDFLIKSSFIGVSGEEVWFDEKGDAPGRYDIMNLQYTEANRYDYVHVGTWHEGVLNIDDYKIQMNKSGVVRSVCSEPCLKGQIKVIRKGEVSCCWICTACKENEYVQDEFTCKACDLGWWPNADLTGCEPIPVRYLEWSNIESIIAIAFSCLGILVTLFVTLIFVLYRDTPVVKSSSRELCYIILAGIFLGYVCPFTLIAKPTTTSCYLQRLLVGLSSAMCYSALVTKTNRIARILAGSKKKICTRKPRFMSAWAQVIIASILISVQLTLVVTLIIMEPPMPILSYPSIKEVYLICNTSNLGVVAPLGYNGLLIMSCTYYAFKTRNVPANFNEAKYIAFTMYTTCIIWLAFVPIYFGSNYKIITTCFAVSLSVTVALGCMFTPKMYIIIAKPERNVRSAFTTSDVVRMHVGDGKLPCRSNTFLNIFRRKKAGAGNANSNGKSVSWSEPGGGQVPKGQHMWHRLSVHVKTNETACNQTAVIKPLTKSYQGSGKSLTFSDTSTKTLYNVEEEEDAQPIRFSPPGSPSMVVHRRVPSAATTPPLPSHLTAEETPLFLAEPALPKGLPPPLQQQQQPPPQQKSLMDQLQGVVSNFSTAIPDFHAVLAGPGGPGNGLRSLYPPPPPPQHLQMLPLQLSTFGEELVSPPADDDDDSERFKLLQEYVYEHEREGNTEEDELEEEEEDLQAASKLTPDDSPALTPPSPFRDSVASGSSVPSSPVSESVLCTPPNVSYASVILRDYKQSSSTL
Outline: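 CHO cells stably expressing hmGluR1 were kept overnight in DMEM high glucose with GPT and 1 mM pyruvate, then loaded 2 h with Calcium 3 dye.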

Row | SMILES | pIC50
1 | CN(C)c1ccnc2sc3c(=O)n(-c4ccc(C5CC5)cc4F)cnc3c12 [137F] | 6.82 to 7.30
2 | CCn1cnc2c(sc3ncnc(Nc4ccc(OC)cc4)c32)c1=O [95GM] | < 6.00
3 | COCCCNc1ccnc2sc3c(=O)n(-c4ccc(Cl)cc4)cnc3c12 [28GN] | > 7.30
4 | COc1ncnc2sc3c(=O)n(-c4ccc(Cl)cc4)cnc3c12 [95FO] | 6.00 to 6.82
5 | CNc1c(Br)cnc2sc3c(=O)n(-c4ccc(Cl)cc4)cnc3c12 [compound 188] | > 7.30
6 | O=c1c2sc3nccc(NCCO)c3c2ncn1-c1ccc2occc2c1 [28BD] | > 7.30
7 | CCCCOc1ncnc2sc3c(=O)n(-c4ccc(OC)cc4)cnc3c12 [compound 191] | < 6.00
8 | O=c1c2sc3nccc(N4CCCC4)c3c2ncn1-c1ccc(Br)cc1 [28GT] | 6.00 to 6.82
9 | CC(C)c1ccnc2sc3c(=O)n(-c4ccc(Cl)cc4)cnc3c12 [29J] | > 7.30
10 | CCCNc1ncnc2sc3c(=O)n(-c4ccc(C)cc4)cnc3c12 [95FG] | > 7.30
11 | Cc1ccc(-n2cnc3c(sc4nccc(NCC5CCCO5)c43)c2=O)cc1 (stereo not drawn) [28ET] | 6.82 to 7.30
12 | COCCNc1nncc2sc3c(=O)n(-c4ccc(C)cc4)cnc3c12 [167D] | < 6.00
13 | CC(O)CCNc1ccnc2sc3c(=O)n(-c4ccc(Br)cc4)cnc3c12 (stereo not drawn) [28HO] | > 7.30
14 | Cc1ccc(-n2cnc3c(sc4nccc(NCc5cccs5)c43)c2=O)cc1 [28EQ] | 6.00 to 6.82
15 | COc1ccc(Nc2ncnc3sc4c(=O)n(-c5ccc(Cl)cc5)cnc4c23)cc1 [95GH] | 6.82 to 7.30
16 | C#CCNc1ccnc2sc3c(=O)n(-c4ccc(Br)cc4)cnc3c12 [28DP] | > 7.30
17 | CNc1ncnc2sc3c(=O)n(-c4ccc(Br)cc4)cnc3c12 [95BD] | > 7.30
18 | O=c1c2sc3ncnc(Nc4ccccc4)c3c2ncn1-c1ccc(Cl)cc1 [95FX] | 6.00 to 6.82
19 | O=c1c2sc3nccc(Oc4ccccc4)c3c2ncn1-c1ccc(Cl)cc1 [compound 176] | < 6.00
20 | COCCNc1ccnc2sc3c(=O)n(-c4ccc(F)cc4)cnc3c12 [28GL] | > 7.30
21 | Cc1nc(N)c2c(n1)sc1c(=O)n(-c3ccc(F)cc3)cnc12 [95EW] | 6.82 to 7.30
22 | C=C(C)CNc1ncnc2sc3c(=O)n(-c4ccc(Cl)cc4)cnc3c12 [95EZ] | > 7.30
23 | CN(CCO)c1ccnc2sc3c(=O)n(-c4ccc5c(c4)OCCO5)cnc3c12 [28CF] | > 7.30
24 | Cc1ccc(-n2cnc3c(sc4cnnc(NCC(F)(F)F)c43)c2=O)cc1 [167G] | < 6.00

Row | SMILES | pIC50
25 | COc1ccnc2sc3c(=O)n(-c4ccc(Cl)cc4F)cnc3c12 [28FT] | 6.00 to 6.82
26 | C=CCc1ccnc2sc3c(=O)n(-c4ccc(Cl)cc4)cnc3c12 [178A] | 6.82 to 7.30
27 | COc1ccc(-n2cnc3c(sc4nccc(NC5CC5)c43)c2=O)c(F)c1 [131H] | 6.82 to 7.30
28 | CN(C)c1cccc2sc3c(=O)n(-c4cc(Cl)cc(Cl)c4)cnc3c12 [103K] | < 6.00
29 | C=C(C)CNc1ccnc2sc3c(=O)n(-c4ccc(OC)c(F)c4)cnc3c12 [28FE] | 6.82 to 7.30
30 | COCCNc1ccnc2sc3c(=O)n(-c4ccc(Br)cc4)cnc3c12 [28GO] | > 7.30
31 | C#CCNc1ncnc2sc3c(=O)n(-c4ccc5ncsc5c4)cnc3c12 [95EM] | 6.00 to 6.82
32 | C#CCNc1ncnc2sc3c(=O)n(-c4ccc5occc5c4)cnc3c12 [95ES] | > 7.30
33 | O=c1c2sc3nccc(NCCCO)c3c2ncn1-c1ccc2c(c1)CCO2 [28CJ] | > 7.30
34 | COCCNc1ncnc2sc3c(=O)n(-c4ccc(Cl)cc4)cnc3c12 [95DI] | > 7.30
35 | CN(C)c1ccnc2sc3c(=O)n(-c4ccc(C5CC5)c(F)c4)cnc3c12 [137G] | > 7.30
36 | CCN(C)c1ccnc2sc3c(=O)n(-c4cccc(Cl)c4)cnc3c12 [28CA] | > 7.30
37 | CN(C)c1cccc2sc3c(=O)n(-c4ccccc4F)cnc3c12 [103L] | < 6.00
38 | C=C(C)CNc1ccnc2sc3c(=O)n(-c4ccc5c(c4)OCCO5)cnc3c12 [28FF] | 6.00 to 6.82
39 | O=c1c2sc3nccc(NCCCO)c3c2ncn1-c1ccc(F)cc1 [28GP] | > 7.30
40 | Cc1ccc(-n2cnc3c(sc4nccc(NC5CC5)c43)c2=O)cc1F [131L] | > 7.30
41 | C=C(OCC)c1ccnc2sc3c(=O)n(-c4ccc(Cl)cc4)cnc3c12 [183A] | 6.00 to 6.82
42 | CC(C)(O)c1ccnc2sc3c(=O)n(-c4ccc(Cl)cc4)cnc3c12 [compound 186] | < 6.00
43 | CNc1ccnc2sc3c(=O)n(-c4ccc5c(c4)CCO5)cnc3c12 [28BR] | > 7.30
44 | Cc1ccc(-n2cnc3c(sc4nccc(CN(C)C)c43)c2=O)cc1 [169A] | < 6.00
45 | COc1ccc(Nc2ccnc3sc4c(=O)n(-c5ccc(OC)cc5)cnc4c23)cc1 [28FP] | 6.00 to 6.82
46 | CSCCNc1ncnc2sc3c(=O)n(-c4ccc(Cl)cc4)cnc3c12 [95FS] | > 7.30
47 | COc1ccc(-n2cnc3c(sc4ncnc(OC)c43)c2=O)cc1 [95GO] | < 6.00
48 | O=c1c2sc3nccc(Nc4ccccc4)c3c2ncn1-c1ccc(Cl)cc1 [190C] | 6.00 to 6.82

same assay, conditions: against Quisqualate 1 μM (EC80), FLIPR calcium mobilization, read-out: mGluR1 IC50

Row | SMILES | pIC50
49 | C#CCNc1ccnc2sc3c(=O)n(-c4ccc(Br)cc4)cnc3c12 [28DP] | 8.76
50 | Cc1ccc(-n2cnc3c(sc4nccc(NCC#N)c43)c2=O)cc1 [28AA] | 8.74
51 | CNc1ccnc2sc3c(=O)n(-c4ccc(C)cc4)cnc3c12 [28AI] | 8.90

same assay, conditions: against Quisqualate 1 μM (EC80), class symbols, read-out: mGIuR 1 IC50

Row | SMILES | pIC50
52 | Cc1cc(N(C)C)c2c(n1)sc1c(=O)n(-c3cccc(Br)c3)cnc12 [7DN] | 6.82 to 7.30
53 | CC1CCCC(C)N1n1cnc2c(sc3nccc(N(C)C)c32)c1=O (stereo not drawn) [60F] | 6.82 to 7.30
54 | O=c1c2sc3c(ccc[n+]3[O-])c2ncn1-c1ccccc1 [12A] | 6.00 to 6.82
55 | CN(C)c1ccc(C#N)c2sc3c(=O)n(C4CCCCC4)cnc3c12 [compound 105] | < 6.00
56 | Cc1nc2ccc(-n3cnc4c(sc5nccc(N(C)C)c54)c3=O)cc2o1 [7BT] | < 6.00
57 | CCc1cc(N(C)C)c2c(n1)sc1c(=O)n(-c3ccc(C)cc3)cnc12 [87B] | 6.82 to 7.30
58 | Cc1ccc(-n2cnc3c4c(N(C)C)ccnc4n(C)c3c2=O)cc1 [134A] | 6.00 to 6.82
59 | CN(C)c1ccnc2sc3c(=O)n(Cc4ccsc4)cnc3c12 [15V] | 6.00 to 6.82
60 | CN(C)c1ccnc2sc3c(=O)n(C4Cc5ccccc5C4)cnc3c12 [15Y] | > 7.30
61 | CN(C)c1ccnc2sc3c(=O)n(-c4ccc(Br)cc4)cnc3c12 [7H] | > 7.30
62 | Cc1ccc(-n2cnc3c(sc4nccc(N(C)C)c43)c2=O)c(F)c1 [7DW] | > 7.30
63 | COc1ccc(C(=O)Nc2ccnc3sc4c(=O)n(C5CCCCC5)cnc4c23)cc1 [73F] | < 6.00
64 | Cc1cccc(-n2cnc3c(sc4nccc(N(C)C)c43)c2=O)c1 [7CU] | > 7.30
65 | CN(C)c1ccnc2sc3c(=O)n(-c4cccc(C5CC5)c4)cnc3c12 [137B] | > 7.30
66 | CN(C)c1ccnc2sc3c(=O)n(N4CC5CCCC5C4)cnc3c12 (stereo not drawn) [60E] | > 7.30
67 | O=c1c2sc3nccc(O)c3c2ncn1C1CCCCC1 [26A] | < 6.00
68 | CC(=O)Oc1ccc(-n2cnc3c(sc4nccc(N(C)C)c43)c2=O)cc1 [compound 138] | > 7.30
69 | Cc1ccc(-n2cnc3c(sc4nccc(O)c43)c2=O)cc1 [26C] | < 6.00
70 | CN(C)c1ccnc2sc3c(=O)n(-c4ccc(C5CC5)cc4)cnc3c12 [137A] | > 7.30
71 | CN(C)c1ncnc2sc3c(=O)n(-c4ccc5c(c4)CCO5)cnc3c12 [95E] | > 7.30
72 | CCNc1ccnc2sc3c(=O)n(-c4ccc(OC)cc4)cnc3c12 [131A] | > 7.30
73 | CN(C)c1c(Cl)ncc2sc3c(=O)n(-c4ccc(Cl)cc4)cnc3c12 [compound 54] | 6.00 to 6.82
74 | C#CCN(C)c1ccnc2sc3c(=O)n(-c4ccc(C)cc4)cnc3c12 [28AB] | > 7.30
75 | CN(C)c1ccnc2sc3c(=O)n(N)c(-c4ccccc4)nc3c12 [65E] | < 6.00

Row | SMILES | pIC50
76 | COc1ccc(-n2cnc3c(sc4nccc(Nc5ccccc5)c43)c2=O)cc1 [28G] | 6.00 to 6.82
77 | O=C(Nc1ccnc2sc3c(=O)n(C4CCCCC4)cnc3c12)c1ccccc1 [73C] | < 6.00
78 | COc1ccc(-n2cnc3c(sc4cccc(N(C)C)c43)c2=O)cc1 [103E] | 6.82 to 7.30
79 | COc1ccc2nc(-n3cnc4c(sc5nccc(N(C)C)c54)c3=O)sc2c1 [7BP] | < 6.00
80 | O=C(Nc1ccnc2sc3c(=O)n(C4CCCCC4)cnc3c12)c1ccc(Cl)cc1 [73G] | < 6.00
81 | C=Cc1ccc(-n2cnc3c(sc4nccc(N(C)C)c43)c2=O)cc1 [compound 136] | > 7.30
82 | CC1CCC(n2cnc3c(sc4nccc(N(C)C)c43)c2=O)CC1 (stereo not drawn) [15Z] | > 7.30
83 | CN(C)c1cc(C#N)nc2sc3c(=O)n(C4CCCCC4)cnc3c12 [compound 84] | 6.82 to 7.30
84 | Cc1ccc(-n2cnc3c(sc4nccc(NCC(F)(F)F)c43)c2=O)cc1 [28AU] | > 7.30
85 | Cc1ccc(-n2cnc3c(sc4nc(C)cc(N(C)C)c43)c2=O)cc1 [7CK] | > 7.30
86 | CN(C)c1ccnc2sc3c(=O)n(-c4ccccc4Cl)cnc3c12 [7F] | 6.82 to 7.30
87 | COc1ccc(NC(=O)CSc2nc3c(sc4nc(C)cc(C)c43)c(=O)n2-c2ccc(Cl)cc2)cc1 [P-6] | 6.00 to 6.82
88 | CNc1c(Br)cnc2sc3c(=O)n(-c4ccc(OC)cc4)cnc3c12 [compound 152] | > 7.30
89 | Cc1ccc(-n2cnc3c(sc4nccc(NCC#N)c43)c2=O)cc1 [28AA] | > 7.30
90 | CNc1ccnc2sc3c(=O)n(-c4ccc(C)cc4)cnc3c12 [28AI] | > 7.30
91 | O=c1c2sc3nccc(Cl)c3c2ncn1-c1ccccc1 [compound 13] | 6.00 to 6.82
92 | CCCNc1ccnc2sc3c(=O)n(-c4ccc(OC)cc4)cnc3c12 [28AR] | > 7.30
93 | COc1ccc(-n2cnc3c(sc4nccc(NCC5CC5)c43)c2=O)cc1 [28AX] | 6.00 to 6.82
94 | Cc1cc(N(C)C)c2c(n1)sc1c(=O)n(-c3cccnc3)cnc12 [7DD] | 6.00 to 6.82
95 | COc1ccc(-n2cnc3c(sc4nccc(OC)c43)c2=O)cc1 [25B] | 6.00 to 6.82
96 | CCN(C)c1ncnc2sc3c(=O)n(-c4ccc(OC(F)(F)F)cc4)cnc3c12 [95R] | > 7.30
97 | Cc1ccc(-n2cnc3c(sc4nc(-c5cccs5)cc(C(F)(F)F)c43)c2=O)cc1 [P-13] | 6.00 to 6.82
98 | CNc1c([N+](=O)[O-])cnc2sc3c(=O)n(C4CCCCC4)cnc3c12 [compound 52] | 6.00 to 6.82
99 | CCN(C)c1ncnc2sc3c(=O)n(-c4ccc(C)nc4)cnc3c12 [95U] | > 7.30
